Laboratory results reported in patent publication US10995357B2, “Rapid antimicrobial susceptibility testing based on a unique spectral intensity ratio analysis via single fluorescence membrane dye staining and flow cytometry” (POCARED Diagnostics LTD., priority 2017, dated 2021).
Like-named read-outs stand apart in the source and are kept apart here.

Key:
Format in all cases: cell-based
[1] = test system: E. coli; assay: Rapid AST/MIC by spectral intensity ratio (SIR), FM 1-43 staining and flow cytometry, directly from positive blood culture; conditions: E. coli strain from positive blood culture; scatter plot unchanged at high antibiotic concentrations
Description: (§1) In general, the method includes; blood culture centrifugation, bacterial antimicrobial exposure for 2 to 4 hours, bacteria staining with a single fluorescence dye followed by a flow cytometric measurement, and mathematical analysis.
(§2) 31 positive blood cultures were obtained from Sheba Medical Center (Ramat-Gan, Israel) and tested for antimicrobial susceptibility with gentamicin and ampicillin antibiotics (Sigma-Aldrich, USA). A total of 62 positive blood samples-antibiotics combinations were tested. • a) Positive blood samples were received from Sheba Medical Center, 2 ml of each sample were centrifuged for 15 min at 24×g and Supernatants were diluted 1:1000 with Cation-Adjusted Mueller Hinton Broth (CAMHB). • b) Antimicrobial stock solutions were prepared according to CLSI recommendations, and were diluted in CAMHB, to a concentration which was 2 fold higher from the highest concentration recommended for each antimicrobial combination (“Class II Special Controls Guidance Document: Antimicrobial Susceptibility Test (AST) Systems”, Aug. […] As a positive control, a tube with bacterial sample solution (a) without antimicrobial agent. • h) All tubes were incubated at 37° C. • i) 2-4 hours from incubation initiation, 200 μl from each tube were transferred into a fresh tube, dyed with 2 μl of Synaptogreen or FM 1-43 (Sigma-Aldrich; Molecular Probes, respectively) and measured by a flow cytometer. The rest of the sample was further incubated for 16-20 hours and then was visually evaluated for growth.
(§3) In order to quantify the influence of a certain antimicrobial exposure we define the spectral intensity ratio (SIR) as follows: […]
(§4) The MIC is calculated by plotting the spectral intensity ratio (SIR) as a function of the antimicrobial concentration and approximating it to a step function in the form of […]

[2] = test system: K. pneumonia; assay: as above; conditions: 2-4 hours antibiotic exposure, SIR step function fit
Description: as §1, §2, §3, §4

[3] = test system: 31 positive blood cultures (E. coli, K. pneumonia, A. baummanii, P. mirabilis, E. cloacae, Aeromonass spp., K. oxytoca); assay: Reference macro dilution method, visual growth after 16-20 hours, positive blood cultures; conditions: for Reference Method Susceptibilities I: number of strains intermediate out of 31 positive blood cultures; for Reference Method Susceptibilities R: number of strains resistant out of 31 positive blood cultures; for Reference Method Susceptibilities S: number of strains susceptible out of 31 positive blood cultures
Description: 31 positive blood cultures were obtained from Sheba Medical Center (Ramat-Gan, Israel) and tested for antimicrobial susceptibility with gentamicin and ampicillin antibiotics (Sigma-Aldrich, USA). A total of 62 positive blood samples-antibiotics combinations were tested. • a) Positive blood samples were received from Sheba Medical Center, 2 ml of each sample were centrifuged for 15 min at 24×g and Supernatants were diluted 1:1000 with Cation-Adjusted Mueller Hinton Broth (CAMHB). • b) Antimicrobial stock solutions were prepared according to CLSI recommendations, and were diluted in CAMHB, to a concentration which was 2 fold higher from the highest concentration recommended for each antimicrobial combination (“Class II Special Controls Guidance Document: Antimicrobial Susceptibility Test (AST) Systems”, Aug. 28, 2009, FDA). • c) For each sample/antimicrobial combination, a set of tubes was prepared for which 1 ml of CAMHB medium was added, except for the first tube. • d) To each first tube of the set, 2 ml from the antimicrobial stock solution (b) was dispensed. • e) From the first tube a serial dilutions of 2 folds were prepared by transferring 1 ml of the solution to the next tube until the lowest required concentration by CLSI. 1 ml was discarded from the last tube in each set of tubes. • f) To each tube in the set, 1 ml of bacterial sample solution (a) was added. • g) For each serial dilutions set, two controls were added. As a negative control, a tube with 2 ml of CAMHB. As a positive control, a tube with bacterial sample solution (a) without antimicrobial agent. • h) All tubes were incubated at 37° C. • i) 2-4 hours from incubation initiation, 200 μl from each tube were transferred into a fresh tube, dyed with 2 μl of Synaptogreen or FM 1-43 (Sigma-Aldrich; Molecular Probes, respectively) and measured by a flow cytometer. The rest of the sample was further incubated for 16-20 hours and then was visually evaluated for growth.
62 samples (31 positive blood cultures and 2 antibiotics combination) were analyzed in triplicates. Each sample was measured by the flow cytometer and the MIC was calculated using the spectral intensity ratio (SIR) calculation and step function estimation. The bacteria identified within the samples were; E. coli (15 samples), K. pneumonia (6 samples), A. baummanii (4 samples), P. mirabilis (2 samples), E. cloacae (2 samples), Aeromonass spp. (1 sample), and K. oxytoca (1 sample).
Tables 1 and 2 present the results of the positive blood sample experiment using the macro dilution as the reference method. […] There are no errors as defined by “Class II Special Controls Guidance Document: Antimicrobial Susceptibility Test (AST) Systems,” Aug. 28, 2009, FDA.

[4] = test system: 30 clinical isolates of E. coli, K. pneumoniae, E. cloacae, P. mirabilis, and C. freundii; assay: Reference macro dilution method, visual growth after 16-20 hours, clinical isolates; conditions: for Reference Method Susceptibilities I: number of strains intermediate out of 30 clinical isolates; for Reference Method Susceptibilities R: number of strains resistant out of 30 clinical isolates; for Reference Method Susceptibilities S: number of strains susceptible out of 30 clinical isolates
Description: A total of 90 isolates-antibiotics combinations were tested. • a) All strains were cultured onto 5% sheep blood agar (Hylabs, Israel), following overnight incubation, colonies were harvested and suspended in Phosphate Buffer Saline (PBS, Sigma-Aldrich). […] 1 ml was discarded from the last tube in each set of tubes. • g) For each serial dilutions set, two controls were added. As a negative control, a tube with 2 ml of CAMHB. […] The rest of the sample was further incubated for 16-20 hours and then was visually evaluated for growth.

[5] = test system: C. freundii; assay: Rapid AST/MIC by spectral intensity ratio (SIR), FM 1-43 staining and flow cytometry, from clinical isolates; conditions: C. freundii clinical isolate; up to 32 μg/ml; SIR almost constant
Description: (§5) Our method includes bacterial antimicrobial treatment for 2 to 4 hours, bacteria staining with a single fluorescence dye followed by a flow cytometric measurement, and mathematical analysis. The following paragraphs describe the method in details.
(§6) A total of 90 isolates-antibiotics combinations were tested. • a) All strains were cultured onto 5% sheep blood agar (Hylabs, Israel), following overnight incubation, colonies were harvested and suspended in Phosphate Buffer Saline (PBS, Sigma-Aldrich). […] The rest of the sample was further incubated for 16-20 hours and then was visually evaluated for growth.
(§7) In order to quantify the influence of a certain antimicrobial treatment, we define the spectral intensity ratio (SIR) as follows: […]
(§8) The MIC is calculated by plotting the spectral intensity ratio (SIR) as a function of the antimicrobial concentration and approximating it to a step function in the form of
(§9) Where a, b, and c are parameters and erf is the error function. The parameters are used to approximate the measured SIR to a step function; a is a scaling parameter, b determines the step slope, and c is the MIC value. […]

[6] = test system: E. coli; assay: as above; conditions: E. coli clinical isolate; 2-4 hours antibiotic exposure; SIR step function fit
Description: as §5, §6, §7, §8, §9

CC1(C)S[C@@H]2[C@H](NC(=O)[C@H](N)c3ccccc3)C(=O)N2[C@H]1C(=O)O [Ampicillin, ampicillin]
Susceptibility (SIR as a function of antibiotic concentration) [1]: resistant
MIC ([2]; Klebsiella pneumoniae, read-out: MIC): 4 µg/mL
Reference Method Susceptibilities I [3]: 0
Reference Method Susceptibilities R [3]: 26
Reference Method Susceptibilities S [3]: 5
Reference Method Susceptibilities I [4]: 5
Reference Method Susceptibilities R [4]: 9
Reference Method Susceptibilities S [4]: 16

gentamicin
MIC [2]: 1 µg/mL
Susceptibility (SIR as a function of antibiotic concentration) [5]: resistant
MIC [6]: 2 µg/mL
Reference Method Susceptibilities I [3]: 0
Reference Method Susceptibilities R [3]: 10
Reference Method Susceptibilities S [3]: 21
Reference Method Susceptibilities I [4]: 4
Reference Method Susceptibilities R [4]: 5
Reference Method Susceptibilities S [4]: 21
